This is an account of results in patent US20130296267A1, “AGENT FOR INTRA-ARTICULAR INJECTION” (priority 2008, published 2013).

The nature of this series: microscopy of dexamethasone crystals in pure saline and in the innovation. The series is classed as physicochemical. Particulars: in phospholipid solution.

Turning to `CC(=O)OCC(=O)[C@@]1(O)[C@H](C)C[C@H]2[C@@H]3CCC4=CC(=O)C=C[C@]4(C)[C@@]3(F)[C@@H](O)C[C@@]21C` [dexamethasone crystals, dexamethasone acetate], the “crystals after twelve hours” value (after twelve hours) is reported as “no longer detectable”. The molecule further gave a reduction of crystals (within six hours) of 50%.
